The results in this text go back to PMC6058608, “Cell penetrating peptides: a comparative transport analysis for 474 sequence motifs” (Drug Delivery, 2018).

The first experiment has as its system HeLa cells. As to the kind of experiment: CPP uptake experiment: cellular fluorescence of FAM-labeled CPPs. The format is cell-based, human. To be noted: FAM not coupled to a CPP; mean value and standard error of two measurements. How it is done: The human cervix adenocarcinoma cell line HeLa was obtained from I.A.Z. (Munich, Germany). As cell growth medium DMEM/Ham’s F-12 (1:1) supplemented with 2 mM L-glutamine, 10% fetal bovine serum, and 1% penicillin/streptomycin (all Capricorn Scientific, Ebsdorfergrund, Germany, formerly PAA Laboratories) was used, and cells were cultured at 37 °C and 5% CO2. They were passaged before reaching confluence; for the experiments, cells at passages p8–p20 were used. For testing uptake efficiency and cytotoxicity of CPPs, cells were seeded in 96-well µ-plates (ibidi, Munich, Germany) at a concentration of 6 × 10^4 cells per well and incubated for 48 h to reach confluence before performing the experiments.
All solutions used were warmed to 37 °C, with CPP incubation performed at 37 °C and 5% CO2. CPP working solutions were prepared in 96-well polypropylene plates (Corning, Amsterdam, Netherlands) directly before incubation by diluting the 50 µM FAM-labeled CPP stock solutions to 10 µM with cell growth medium. The confluent HeLa cells in the 96-well µ-plates were exposed to 100 µl of a 10 µM CPP working solution per well for 90 min. Cell growth medium served as negative control. After incubation, the cells were washed twice with 300 µl of CM-PBS (PAA Laboratories), then 100 µl CM-PBS was added before determining fluorescence intensities in a plate reader (SpectraMax M5, Molecular Devices, Sunnyvale, CA) at an excitation wavelength of 495 nm and an emission wavelength of 530 nm. Transmission images of the treated cell layers were taken using a MORE microscope (TILL Photonics, Munich, Germany) equipped with a 10×/0.45 objective (Zeiss, Jena, Germany), an FITC filterset (ET480_40x/ET535_50 m/T510LPXRXT, Chroma, Rockingham, NC) and LED and oligochrome light source (FEI). Images were acquired using a Stingray F-145B CCD camera (Allied Vision Tech., Stadtroda, Germany) via live acquisition software (v2.2.2, FEI).
As to “5(6)-carboxyfluorescein [FAM, reference compound]”, the “Uptake of FAM without CPP into the HeLa layer” value was 14.3 ± 8.1 RFU.

Staying with this experiment, now noted: HeLa cells after incubation with 10 µM FAM-labeled CPP, 90 min, 37 °C; mean of two experiments (Table 1).
As for LLKKRKVVRLIKFLLK [compound 343], the “Fluorescence (RFU)” value was found to be 435.30 RFU.

Regarding KALAKALAKLWKALAKAA [compound 373], the “Fluorescence (RFU)” value stood at 345.58 RFU.

With KLAAALLKKWKKLAAALL [compound 375], the “Fluorescence (RFU)” value came out at 335.89 RFU. On the same count and under the same terms, the value for KLALKLALKALKAALKLA [compound 405] was 440.41 RFU; that for GLFKALLKLLKSLWKLLLKA [compound 431] was 326.66 RFU; that for LIRLWSHLIHIWFQNRRLKWKKK [compound 466] was 425.60 RFU.

With “KKKKKKKKKKKKKKKKKKK [compound 412, designed model peptide, FAM-labeled CPP]”, the “Fluorescence (RFU)” value came to 632.01 RFU.

In the case of CWKKKKKKKKKKKKKKKKKK [compound 429], the “Fluorescence (RFU)” value was 417.94 RFU. Same read-out and setting: the same measure for “KLALKLALKALKAALK [compound 296, designed model peptide, FAM-labeled CPP]”: 478.40 RFU; for GLWRALWRGLRSLWKKKRKV [compound 427]: 375.17 RFU. Still for that read-out and setting: the value for GLWRALWRGLRSLWKLKRKV [compound 426] was 347.66 RFU.

As for “KTVLLRKLLKLLVRKI [compound 342, designed model peptide, FAM-labeled CPP]”, the “Fluorescence (RFU)” value came out at 855.56 RFU. Still for that read-out and setting: the value for GLWRALWRALRSLWKLKRKV [compound 425] was 384.64 RFU; that for LNSAGYLLGKINLKALAALAKKIL [compound 473] was 422.13 RFU. Regarding WLRRIKAWLRRIKALNRQLGVAA [compound 471], the “Fluorescence (RFU)” value was determined as 1011.42 RFU.

As to YTAIAWVKAFIRKLRK [compound 351], the “Fluorescence (RFU)” value worked out at 401.31 RFU. As for PKKKRKVALWKTLLKKVLKA [compound 415], the “Fluorescence (RFU)” value is reported as 390.81 RFU.

In the case of RQARRNRRRALWKTLLKKVLKA [compound 446], the “Fluorescence (RFU)” value stood at 450.97 RFU. For the substance “VKRKKKPALWKTLLKKVLKA [compound 416, CPP derived from the antimicrobial peptide dermaseptin S4 attached to a nuclear localization signal, FAM-labeled]”, the “Fluorescence (RFU)” value was 925.42 RFU. The same measure, in the same setting: the same measure for KLALKLALKAWKAALKLA [compound 372]: 309.34 RFU.
